Measured values from US10196401B2, “Spiro-lactam NMDA receptor modulators and uses thereof” (Aptinyx Inc., priority 2016, dated 2019).

What was measured:
[1] = molecular target: NMDAR2A (Homo sapiens, UniProt Q12879); assay: Potentiation of [3H]MK-801 binding, NMDAR2A; design: species or system rat; details: NMDAR2A binding profile; for % 1 mM Glycine: relative to 1 mM glycine
Description: (§1) Assays were conducted as described by Moskal et al., “GLYX-13: a monoclonal antibody-derived peptide that acts as an N-rnethyl-D-aspartate receptor modulator,” Neuropharmacology, 49, 1077-87, 2005. The potentiation of [^3H]MK-801 binding (5 nrM; 22.5 Ci/mmol) to well washed rat cortical membranes (200 μg) was measured under non-equilibrium conditions (15 min @ 25° C.) in the presence of increasing concentrations of Compound A.
(§2) Assays were conducted as described above in Example 5, by Moskal et al. (2005).

[2] = molecular target: NMDAR2B (Homo sapiens, UniProt Q13224); assay: Potentiation of [3H]MK-801 binding, NMDAR2B; design: species or system rat; details: NMDAR2B binding profile; for % 1 mM Glycine: relative to 1 mM glycine
[3] = molecular target: NMDAR2C (Homo sapiens, UniProt Q14957); assay: Potentiation of [3H]MK-801 binding, NMDAR2C; design: species or system rat; details: NMDAR2C binding profile; for % 1 mM Glycine: relative to 1 mM glycine
[4] = molecular target: NMDAR2D (Homo sapiens, UniProt O15399); assay: Potentiation of [3H]MK-801 binding, NMDAR2D; design: species or system rat; details: NMDAR2D binding profile; for % 1 mM Glycine: relative to 1 mM glycine
Description: as §1, §2

[5] = test system: Sprague Dawley rats; assay: Bennett model of mechanical analgesia (paw withdrawal threshold); type: in vivo, rat; details: 150 mg/kg PO; tested 1 h, 24 hrs and 1 week post-dosing
Description: Bennett G J, Xie Y K, “A peripheral mononeuropathy in rat that produces disorders of pain sensation like those seen in man,” Pain 33:87-107, 1988. […] Vehicle animals receive the surgery and then receive vehicle rather than test compound. Animals were tested 1 hr, 24 h and 1 wk post-test compound or vehicle administration.
Male 2-3 month old Sprague Dawley rats were used. Harlan was the supplier for all studies. Rats were housed in Lucite cages with aspen wood chip bedding, maintained on a 12:12 light:dark cycle (lights on at 5 AM), and given ad libitum access to Purina lab chow (USA) and tap water throughout the study.
Rats were anesthetized using inhaled isoflurane (2.5%). Spared nerve injury surgery was performed as previously described (Bennett and Xie, 1988). An incision (˜1.5 cm in length) was made with a scalpel blade dorsally through skin on the right hindlimb, parallel and posterior to femur. Using a small pointed hemostat, the biceps femoris and gluteus superficialis muscles were separated. Using curved blunt forceps, the common sciatic nerve was isolated and exposed. For the mechanical analgesia studies, the whole sciatic nerve was ligated. Using hemostats/forceps and chromic gut (5-0), the nerve was loosely ligated with a square knot; 3 ligatures, 1 mm apart were placed on the nerve. […] For the thermal analgesia studies, the common peroneal and tibial branches of the sciatic nerve were ligated and cut, and the sural branch was spared. See Decosterd I, Woolf C J, “Spared nerve injury: an animal model of persistent peripheral neuropathic pain,” Pain 87:149-158, 2000. Testing occurred 1-2 weeks post-surgery.
During testing, rats were acclimated to the surface of a suspended wire mesh grid (1 cm×1 cm, with the wire being 0.3 cm in diameter) for 15-20 min. Starting from the smallest, each Von Frey filament was pressed perpendicularly to the plantar surface of the affected (ipsilateral) hindpaw until slightly bent and then held for 6 second. […]

NMDAR2C, sequence (Q14957 20-1233, species assumed, other chains not shown): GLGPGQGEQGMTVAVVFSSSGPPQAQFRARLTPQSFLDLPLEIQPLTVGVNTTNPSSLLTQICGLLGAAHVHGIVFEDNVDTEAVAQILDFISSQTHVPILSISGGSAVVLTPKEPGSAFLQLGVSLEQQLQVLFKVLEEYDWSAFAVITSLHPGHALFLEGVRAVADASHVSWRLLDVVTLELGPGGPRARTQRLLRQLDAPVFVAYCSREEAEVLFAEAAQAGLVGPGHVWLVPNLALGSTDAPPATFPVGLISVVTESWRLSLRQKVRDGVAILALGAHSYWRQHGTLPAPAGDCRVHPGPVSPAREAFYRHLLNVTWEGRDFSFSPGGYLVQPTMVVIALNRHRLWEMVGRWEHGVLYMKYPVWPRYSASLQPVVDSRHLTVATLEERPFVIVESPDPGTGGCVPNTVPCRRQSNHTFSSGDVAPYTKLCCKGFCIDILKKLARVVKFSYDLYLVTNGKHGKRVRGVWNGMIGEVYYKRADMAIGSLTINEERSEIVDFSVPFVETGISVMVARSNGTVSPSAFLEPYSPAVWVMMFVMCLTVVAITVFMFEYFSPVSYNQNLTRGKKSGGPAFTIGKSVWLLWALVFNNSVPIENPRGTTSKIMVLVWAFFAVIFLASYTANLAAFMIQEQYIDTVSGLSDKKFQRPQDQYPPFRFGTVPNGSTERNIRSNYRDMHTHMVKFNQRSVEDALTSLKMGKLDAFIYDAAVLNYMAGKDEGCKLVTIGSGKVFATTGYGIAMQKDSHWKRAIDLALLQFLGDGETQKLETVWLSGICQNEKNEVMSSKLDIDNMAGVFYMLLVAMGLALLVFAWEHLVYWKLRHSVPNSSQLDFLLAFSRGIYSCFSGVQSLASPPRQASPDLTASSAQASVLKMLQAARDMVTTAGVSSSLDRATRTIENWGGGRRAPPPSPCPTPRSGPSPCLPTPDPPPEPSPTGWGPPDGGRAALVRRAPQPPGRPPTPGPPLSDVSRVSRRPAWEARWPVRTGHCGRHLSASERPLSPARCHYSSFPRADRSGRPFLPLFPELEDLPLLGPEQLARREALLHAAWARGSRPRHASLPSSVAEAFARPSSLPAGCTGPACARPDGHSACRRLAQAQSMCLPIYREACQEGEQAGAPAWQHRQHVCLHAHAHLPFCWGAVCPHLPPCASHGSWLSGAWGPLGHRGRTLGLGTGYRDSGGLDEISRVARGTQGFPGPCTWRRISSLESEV
NMDAR2B, sequence (Q13224 27-1484, species assumed, other chains not shown): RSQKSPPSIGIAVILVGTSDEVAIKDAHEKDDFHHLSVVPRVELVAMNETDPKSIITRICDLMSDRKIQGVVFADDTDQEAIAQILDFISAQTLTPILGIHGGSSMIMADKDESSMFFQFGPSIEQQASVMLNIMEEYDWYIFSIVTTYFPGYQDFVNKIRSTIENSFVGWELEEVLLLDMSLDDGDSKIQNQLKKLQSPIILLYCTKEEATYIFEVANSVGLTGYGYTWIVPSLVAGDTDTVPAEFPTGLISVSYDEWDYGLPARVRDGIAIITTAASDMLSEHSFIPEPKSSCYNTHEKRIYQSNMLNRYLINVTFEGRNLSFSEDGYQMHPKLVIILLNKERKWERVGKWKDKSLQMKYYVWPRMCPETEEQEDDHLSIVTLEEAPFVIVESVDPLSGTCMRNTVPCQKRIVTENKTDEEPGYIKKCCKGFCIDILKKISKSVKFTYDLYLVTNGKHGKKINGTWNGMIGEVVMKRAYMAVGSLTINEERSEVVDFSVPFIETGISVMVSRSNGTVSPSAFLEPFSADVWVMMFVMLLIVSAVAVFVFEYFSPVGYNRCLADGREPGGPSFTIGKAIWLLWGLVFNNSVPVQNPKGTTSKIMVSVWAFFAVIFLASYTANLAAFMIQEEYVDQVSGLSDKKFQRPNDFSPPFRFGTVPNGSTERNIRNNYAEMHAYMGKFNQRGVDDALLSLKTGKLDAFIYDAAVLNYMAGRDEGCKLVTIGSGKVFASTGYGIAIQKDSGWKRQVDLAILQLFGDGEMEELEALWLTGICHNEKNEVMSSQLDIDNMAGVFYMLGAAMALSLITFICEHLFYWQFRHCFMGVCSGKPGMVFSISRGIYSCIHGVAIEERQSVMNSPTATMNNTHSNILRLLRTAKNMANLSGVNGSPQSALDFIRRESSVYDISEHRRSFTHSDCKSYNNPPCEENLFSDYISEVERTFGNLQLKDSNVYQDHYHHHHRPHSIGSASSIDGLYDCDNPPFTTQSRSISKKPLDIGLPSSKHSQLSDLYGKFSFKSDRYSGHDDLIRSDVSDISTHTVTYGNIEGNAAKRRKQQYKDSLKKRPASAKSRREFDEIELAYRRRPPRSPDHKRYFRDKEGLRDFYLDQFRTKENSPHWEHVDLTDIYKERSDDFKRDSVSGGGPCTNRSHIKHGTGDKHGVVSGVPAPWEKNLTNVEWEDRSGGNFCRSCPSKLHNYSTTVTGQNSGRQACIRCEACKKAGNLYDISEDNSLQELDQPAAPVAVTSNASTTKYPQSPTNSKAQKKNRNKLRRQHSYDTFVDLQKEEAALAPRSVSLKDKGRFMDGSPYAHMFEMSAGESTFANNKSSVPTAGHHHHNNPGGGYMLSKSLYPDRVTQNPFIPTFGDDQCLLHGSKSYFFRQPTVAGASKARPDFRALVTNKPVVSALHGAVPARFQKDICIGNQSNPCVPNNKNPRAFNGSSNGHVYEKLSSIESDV
NMDAR2A, sequence (Q12879 23-1464, species assumed, other chains not shown): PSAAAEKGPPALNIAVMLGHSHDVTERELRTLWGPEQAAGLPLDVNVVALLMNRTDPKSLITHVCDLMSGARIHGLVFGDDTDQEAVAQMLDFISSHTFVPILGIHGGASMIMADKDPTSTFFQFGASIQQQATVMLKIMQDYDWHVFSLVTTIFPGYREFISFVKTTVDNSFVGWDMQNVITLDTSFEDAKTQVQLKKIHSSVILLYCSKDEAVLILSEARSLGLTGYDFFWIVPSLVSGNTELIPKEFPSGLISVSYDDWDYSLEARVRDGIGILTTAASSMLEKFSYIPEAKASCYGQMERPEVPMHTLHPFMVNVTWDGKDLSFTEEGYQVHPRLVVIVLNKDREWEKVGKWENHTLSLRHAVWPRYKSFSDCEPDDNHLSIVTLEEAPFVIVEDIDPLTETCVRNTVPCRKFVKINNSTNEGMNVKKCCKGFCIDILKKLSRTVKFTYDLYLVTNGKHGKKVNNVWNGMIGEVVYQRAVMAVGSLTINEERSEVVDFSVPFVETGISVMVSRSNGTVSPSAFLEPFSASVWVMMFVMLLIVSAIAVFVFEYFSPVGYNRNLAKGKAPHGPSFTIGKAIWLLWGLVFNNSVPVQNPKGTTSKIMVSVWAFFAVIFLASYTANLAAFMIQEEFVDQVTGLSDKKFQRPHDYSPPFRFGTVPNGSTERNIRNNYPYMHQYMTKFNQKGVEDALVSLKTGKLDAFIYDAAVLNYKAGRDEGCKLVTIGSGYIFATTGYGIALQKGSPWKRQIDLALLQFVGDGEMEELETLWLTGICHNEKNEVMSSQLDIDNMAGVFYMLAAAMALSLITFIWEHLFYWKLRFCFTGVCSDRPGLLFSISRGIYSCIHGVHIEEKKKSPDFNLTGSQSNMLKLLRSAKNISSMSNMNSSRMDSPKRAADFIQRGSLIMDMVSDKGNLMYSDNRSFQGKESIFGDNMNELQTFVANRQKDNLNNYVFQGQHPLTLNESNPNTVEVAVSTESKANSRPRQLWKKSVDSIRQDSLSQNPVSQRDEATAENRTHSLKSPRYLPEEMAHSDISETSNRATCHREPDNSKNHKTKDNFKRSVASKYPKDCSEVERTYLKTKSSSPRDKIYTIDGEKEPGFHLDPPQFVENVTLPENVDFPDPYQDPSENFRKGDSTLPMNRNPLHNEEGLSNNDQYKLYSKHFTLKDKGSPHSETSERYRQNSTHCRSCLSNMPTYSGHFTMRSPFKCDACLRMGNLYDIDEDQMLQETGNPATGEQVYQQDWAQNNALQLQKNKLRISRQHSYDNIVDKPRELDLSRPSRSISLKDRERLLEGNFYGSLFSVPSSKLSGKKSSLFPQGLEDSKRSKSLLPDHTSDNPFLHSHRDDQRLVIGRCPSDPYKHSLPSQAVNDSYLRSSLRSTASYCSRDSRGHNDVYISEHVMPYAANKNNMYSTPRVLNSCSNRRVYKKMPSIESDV

SMILES | Conclusion [1] | % 1 mM Glycine [1] [%] | Conclusion [2] | % 1 mM Glycine [2] [%] | Conclusion [3] | % 1 mM Glycine [3] [%] | Conclusion [4] | % 1 mM Glycine [4] [%] | analgesic effect in the Bennett model [5]
C[C@@H](O)[C@@H](C(N)=O)N1C[C@]2(CCCN2C(=O)OC(C)(C)C)C1=O [Compound W, tert-butyl (R)-2-((2S,3R)-1-amino-3-hydroxy-1-oxobutan-2-yl)-1-oxo-2,5-diazaspiro[3.4]octane-5-carboxylate] | WT2A agonist | 18.33 | WT2B agonist | 53.09 | WT2C agonist | 67.5 | agonist | 66.72 | 
C[C@@H](O)[C@@H](C(N)=O)N1C[C@@]2(CCCN2C(=O)OC(C)(C)C)C1=O [Compound X, tert-butyl (S)-2-((2S,3R)-1-amino-3-hydroxy-1-oxobutan-2-yl)-1-oxo-2,5-diazaspiro[3.4]octane-5-carboxylate] | WT2A agonist | 41.04 | WT2B agonist | 59.55 | WT2C agonist | 59.73 | agonist | 93.58 | 
CC(C)C(=O)N1CCC[C@]12CN([C@H](C(N)=O)[C@@H](C)O)C2=O [Compound Y, (2S,3R)-3-hydroxy-2-((R)-5-isobutyryl-1-oxo-2,5-diazaspiro[3.4]octan-2-yl)butanamide] | WT2A agonist | 61.76 | WT2B agonist | 70.74 | WT2C agonist | 64.24 | agonist | 54.85 | 
CC(C)C(=O)N1CCC[C@@]12CN([C@H](C(N)=O)[C@@H](C)O)C2=O [Compound Z, (2S,3R)-3-hydroxy-2-((S)-5-isobutyryl-1-oxo-2,5-diazaspiro[3.4]octan-2-yl)butanamide] | WT2A agonist | 42.5 | WT2B agonist | 70.49 | WT2C agonist | 47.76 | agonist | 65.32 | 
NCC1(CC(=O)O)CCCCC1 [gabapentin, reference compound] |  |  |  |  |  |  |  |  | only produced an analgesic effect 1 h post-dosing
